Activity calls are given as the source filed them. The rule behind the calls is not given here.
What was measured:
O-acyltransferase [1] = biological target: T1, O-acyltransferase (Oryctolagus cuniculus, UniProt G1SFD9); test: Inhibition of Acyl-CoA: Cholesterol Acyltransferase (ACAT) in intestinal microsomes of cholesterol fed rabbits; parameters: species or system Intestine
[2] = biological target: T2, Sterol O-acyltransferase 1 (Rattus norvegicus, UniProt O70536); test: (§1) Compound at 5 uM concentration was tested in vitro for inhibition of Acyl-CoA: Cholesterol Acyltransferase (ACAT) in liver microsomes of cholesterol fed rats; parameters: species or system Microsome
T2 sequence (O70536 whole entry): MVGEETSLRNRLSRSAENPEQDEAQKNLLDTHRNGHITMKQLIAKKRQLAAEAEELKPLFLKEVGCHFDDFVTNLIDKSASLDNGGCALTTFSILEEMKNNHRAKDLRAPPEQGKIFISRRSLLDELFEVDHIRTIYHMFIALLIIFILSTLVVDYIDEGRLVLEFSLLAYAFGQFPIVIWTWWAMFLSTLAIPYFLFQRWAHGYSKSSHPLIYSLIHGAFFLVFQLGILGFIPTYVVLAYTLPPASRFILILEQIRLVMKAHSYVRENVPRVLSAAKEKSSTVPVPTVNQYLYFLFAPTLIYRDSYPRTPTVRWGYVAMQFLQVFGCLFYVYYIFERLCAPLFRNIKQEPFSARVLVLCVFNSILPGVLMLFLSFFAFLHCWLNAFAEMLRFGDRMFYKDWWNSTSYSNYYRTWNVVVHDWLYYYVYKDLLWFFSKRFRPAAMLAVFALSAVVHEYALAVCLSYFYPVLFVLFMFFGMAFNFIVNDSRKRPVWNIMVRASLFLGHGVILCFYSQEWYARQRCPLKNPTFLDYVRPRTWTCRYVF

Rattus norvegicus [3] = test: Hypocholesterolemic activity expressed as percent change in total cholesterol in acute cholesterol fed rats (APCC) at dose 30 mg/kg; NC means no change; format: functional, organism-based; parameters: dose 30 mg/kg
[4] = biological target: T2, Sterol O-acyltransferase 1; test: Inhibition of Acyl-CoA: Cholesterol Acyltransferase (ACAT) in liver microsomes of cholesterol fed rats; parameters: species or system Microsome
Rattus norvegicus [5] = test: Hypocholesterolemic activity expressed as percent change in total cholesterol in acute cholesterol fed rats (APCC) at dose 3 mg/kg; format: functional
Rattus norvegicus [6] = test: Hypocholesterolemic activity expressed as percent change in total cholesterol in acute cholesterol fed rats (APCC) at dose 30 mg/kg; format: functional
Rattus norvegicus [7] = test: Hypocholesterolemic activity expressed as percent change in total cholesterol in chronic cholesterol fed rats (CPCC) at dose 30 mg/kg; format: functional
Rattus norvegicus [8] = test: Hypocholesterolemic activity expressed as percent change in total cholesterol in chronic cholesterol fed rats (CPCC) at dose 3 mg/kg; format: functional
[9] = biological target: T3, Sterol O-acyltransferase 1 (Rattus norvegicus) (UniProt O70536); test: Compound at 10 uM concentration was tested in vitro for inhibition of Acyl-CoA: Cholesterol Acyltransferase (ACAT) in liver microsomes of cholesterol fed rats; conditions: Microsome
T3 sequence (whole entry): T2 sequence (O70536 whole entry)

[10] = biological target: T4, Acyl-CoA:cholesterol acyltransferase (Oryctolagus cuniculus) (UniProt Q95214); test: (§2) Compound at 5 uM concentration was tested in vitro for inhibition of Acyl-CoA: Cholesterol Acyltransferase (ACAT) in intestinal microsomes of cholesterol fed rabbits; conditions: Intestine
T4 sequence (whole entry): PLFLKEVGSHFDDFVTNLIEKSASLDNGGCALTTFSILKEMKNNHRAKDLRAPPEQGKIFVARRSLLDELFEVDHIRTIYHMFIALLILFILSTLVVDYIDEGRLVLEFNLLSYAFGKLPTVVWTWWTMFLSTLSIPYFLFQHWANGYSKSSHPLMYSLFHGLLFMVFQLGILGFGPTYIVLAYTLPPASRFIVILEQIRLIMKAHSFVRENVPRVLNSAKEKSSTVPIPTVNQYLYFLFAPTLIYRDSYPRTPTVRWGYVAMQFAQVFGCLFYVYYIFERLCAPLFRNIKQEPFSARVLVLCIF

Rattus norvegicus [11] = test: Hypocholesterolemic activity expressed as percent change in total cholesterol in chronic cholesterol fed rats (CPCC) at dose 3 mg/kg; NC means no change; format: functional, organism-based; parameters: dose 3 mg/kg
O-acyltransferase [12] = biological target: T1, O-acyltransferase; test: as §2; parameters: species or system Intestine
[13] = biological target: T3, Sterol O-acyltransferase 1 (Rattus norvegicus); test: as §1; conditions: Microsome

T1 sequence (G1SFD9 1-524): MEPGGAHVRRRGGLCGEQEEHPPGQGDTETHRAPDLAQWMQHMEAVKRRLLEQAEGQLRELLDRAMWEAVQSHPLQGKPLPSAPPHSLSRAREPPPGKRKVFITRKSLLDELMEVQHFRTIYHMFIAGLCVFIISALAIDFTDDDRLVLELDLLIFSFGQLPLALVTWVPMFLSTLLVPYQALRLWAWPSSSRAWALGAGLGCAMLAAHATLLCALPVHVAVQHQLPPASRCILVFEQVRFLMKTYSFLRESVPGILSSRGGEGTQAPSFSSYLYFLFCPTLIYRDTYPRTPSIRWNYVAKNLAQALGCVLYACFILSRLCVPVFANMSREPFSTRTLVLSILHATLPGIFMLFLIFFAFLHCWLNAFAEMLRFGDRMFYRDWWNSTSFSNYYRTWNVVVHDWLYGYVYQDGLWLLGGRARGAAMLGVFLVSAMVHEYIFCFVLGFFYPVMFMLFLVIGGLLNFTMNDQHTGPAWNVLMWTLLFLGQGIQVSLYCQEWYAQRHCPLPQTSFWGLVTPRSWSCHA

| SMILES | IC50 (O-acyltransferase [1]) [nM] | IC50 [4] [nM] | Change (Rattus norvegicus [5]) [%] | Change (Rattus norvegicus [6]) [%] | Change (Rattus norvegicus [7]) [%] | Change (Rattus norvegicus [8]) [%] | also measured |
| --- | --- | --- | --- | --- | --- | --- | --- |
| CCCCCCCCCCCCCCS(=O)(=O)N(Cc1ccccc1)C(=O)Nc1c(C(C)C)cccc1C(C)C | 520 |  |  |  |  |  | IC50 [2]: 38000 nM; Change (Rattus norvegicus [3]): inactive |
| CCCCCCCCCCCCCC(C)(C)S(=O)(=O)NC(=O)Nc1c(OC)cc(OC)cc1OC |  | 8100 | -18 | -76 |  | -13 |  |
| CCCCCCCCCCCCCCS(=O)(=O)NC(=O)Nc1ccc(F)cc1F |  |  | -14 |  |  |  | inhibition [9]: 0%; inhibition [10]: 49% |
| CC(C)c1cccc(C(C)C)c1OC(=O)[N-]S(=O)(=O)Oc1c(C(C)C)cccc1C(C)C.[Na+] |  |  | -59 | -74 | -64 | -64 |  |
| CCCCCCCCS(=O)(=O)NC(=O)Nc1c(C(C)C)cccc1C(C)C |  | 22600 | -31 | -74 | -59 |  | inhibition [10]: 24% |
| CCCCCCCCC(c1ccccc1)S(=O)(=O)NC(=O)Nc1c(C(C)C)cccc1C(C)C (stereo not given) |  | 9200 | -62 | -75 | -74 | -48 | IC50 (O-acyltransferase [12]): 1100 nM |
| CCCCCCCCCCS(=O)(=O)NC(=O)Nc1c(C(C)C)cccc1C(C)C | 11100 | 13600 | -40 | -52 | -47 |  |  |
| CCCCCCCCCCCCCCS(=O)(=O)N(C)C(=O)Nc1c(C(C)C)cccc1C(C)C |  | 8830 | -20 | -48 |  |  | inhibition [10]: 34% |
| CCCCCCCCCCCCCCS(=O)(=O)NC(=O)Nc1c(OC)cc(OC)cc1OC |  |  | -31 | -47 |  |  | inhibition [13]: 40% |

The next lines start with results.

| IC50 (O-acyltransferase [1]) [nM] | IC50 [4] [nM] | SMILES | Change (Rattus norvegicus [5]) [%] | Change (Rattus norvegicus [6]) [%] | Change (Rattus norvegicus [7]) [%] | Change (Rattus norvegicus [8]) [%] | also measured |
| --- | --- | --- | --- | --- | --- | --- | --- |
| 1350 | 1270 | CCCCCCCCCCCCCCCCS(=O)(=O)NC(=O)Nc1c(C(C)C)cccc1C(C)C | -58 | -64 | -10 |  |  |
|  | 1390 | CCCCCCCCCCCCCCCCC(C)S(=O)(=O)NC(=O)Nc1c(C(C)C)cccc1C(C)C (stereo not given) | -58 | -76 | -36 |  |  |
| 2330 | 3300 | CCCCCCCCCCCCS(=O)(=O)NC(=O)Nc1c(C(C)C)cccc1C(C)C | -59 | -63 | -53 | -35 |  |
|  | 830 | CCCCCCCCCCCCCC(C)S(=O)(=O)NC(=O)Nc1c(C(C)C)cccc1C(C)C (stereo not given) | -61 | -76 | -61 | -26 |  |
| 86 | 675 | CCCCCCCCCCCCS(=O)(=O)N(C)C(=O)Nc1c(C(C)C)cccc1C(C)C | -18 | -49 |  |  |  |
|  | 85 | CCCCCCCCCCCCCCCCC(C)S(=O)(=O)NC(=O)Nc1c(OC)cc(OC)cc1OC (stereo not given) | -12 | -53 | -18 |  |  |
|  | 2300 | CCCCCCCCCCCCCC(c1ccccc1)S(=O)(=O)NC(=O)Nc1c(C(C)C)cccc1C(C)C (stereo not given) | -69 | -72 | -62 |  | Change (Rattus norvegicus [11]): inactive |
|  | 940 | CCCCCCCCCCCCCCS(=O)(=O)NC(=O)Nc1c(C(C)C)cccc1C(C)C | -60 | -56 | -58 | -46 |  |
| 1200 | 2000 | CCCCCCCCCCCCCS(=O)(=O)NC(=O)Nc1c(C(C)C)cccc1C(C)C | -42 | -62 | -69 |  |  |
|  | 682 | CCCCCCCCCCCCCC(C)(C)S(=O)(=O)NC(=O)Nc1c(C(C)C)cccc1C(C)C | -55 | -52 | -59 | -26 |  |
|  | 1300 | CCCCCCCCC(C)S(=O)(=O)NC(=O)Nc1c(C(C)C)cccc1C(C)C (stereo not given) | -32 | -69 | -58 | -46 |  |
